Patent US20150297573A1, “TPL2 KINASE INHIBITORS FOR PREVENTING OR TREATING DIABETES AND FOR PROMOTING Beta-CELL SURVIVAL” (INSERM (Institut National De La Santé Et De La Recherche …, priority 2012, published 2015)
Like-named read-outs stand apart in the source and are kept apart here.

Legend:
[1] = tested on: db/db mice
Procedure: FIG. 8: Effect of in vivo inhibition of Tpl2 on initial and body weights. Five-week-old db/db mice were obtained from Janvier Ltd and fed with a standard diet (4% fat) all over the study. All mice had free access to food and fresh water and were kept on a 12 h-day/12 h-night cycle. Body weights were recorded until the day of sacrifice prior to intraperitoneal (ip) administration of glucose, insulin or the daily injection of 2.5 mg/kg Tpl2 inhibitor or of the corresponding vehicle.
FIG. 9: Effect of in vivo inhibition of Tpl2 on fasting glucose and plasma insulin levels. Five-week-old db/db mice were obtained from Janvier Ltd and fed with a standard diet (4% fat) all over the study. All mice had free access to food and fresh water and were kept on a 12 h-day/12 h-night cycle. Fast and blood glucose concentrations were determined with a (Verio Onetouch, Lifescan, Johnson and Johnson Company) glucometer using blood sampled from the tail vein on mice receiving daily injection of 2.5 mg/kg Tpl2 inhibitor or of the corresponding vehicle. Serum insulin levels were quantified by radioimmunoassay (RIA rat insulin kit, Millipore) using blood sampled from the tail vein on the first day of the study or jugular arteries the day of the sacrifice.
(§1) FIG. 10: Effect of in vivo inhibition of Tpl2 on glucose tolerance and insulin tolerance. Five-week-old db/db mice were obtained from Janvier Ltd and fed with a standard diet (4% fat) all over the study. All mice had free access to food and fresh water and were kept on a 12 h-day/12 h-night cycle. Mice received daily injection of 2.5 mg/kg Tpl2 inhibitor or of the corresponding vehicle. Glucose tolerance tests were performed by ip administration of 1-2 g/kg glucose after a 16 h overnight fast and blood glucose concentrations were determined with a (Verio Onetouch, Lifescan, Johnson and Johnson Company) glucometer using blood sampled from the tail vein. Insulin tolerance tests were carried out in a similar manner following the ip administration of 0.75 U insulin per kg body weight to non-fasted mice.
as §1, with “Five-week-old” for “FIG. 10: Effect of in vivo inhibition of Tpl2 on glucose tolerance and insulin tolerance. Five-week-old”, “Body weights were recorded until the day of sacrifice prior to intraperitoneal (ip) administration of glucose, insulin or the” for “Mice received”, “mice. Serum insulin levels were quantified by radioimmunoassay (RIA rat insulin kit, Millipore) using blood sampled from the tail vein on the first day of the study or jugular arteries the day of the sacrifice.” for “mice.”
The progressive development of type 2 diabetes as observed in db/db mice is associated with increased body weight, insulin resistance, hyperglycemia and impaired glucose tolerance.

[2] = tested on: p90RSK; assay: p90RSK phosphorylation in INS-1E β-cells (Western blotting); type: cell-based, rat; details: INS-1E cells, Tpl2 inhibitor 3 μM
Procedure: (§2) Quantification of three to five experiments is shown.
(§3) The rat β-cell line INS-1E was provided by Dr. Maechler (Department of Cell Physiology and Metabolism, Faculty of Medicine, University of Geneva, Geneva, Switzerland). Cells (passages 60-95) were maintained in culture as monolayer at 37° C. in humidified atmosphere with 5% CO2, using RPMI 1640 medium containing 11.1 mM glucose, and supplemented with 7.5% heat-inactivated FCS, 1 mM sodium pyruvate, 10 mM HEPES, 2 mM glutamine, 50 μM β-mercaptoethanol, 100 U/ml penicillin, and 100 μg/ml streptomycin. Experiments were performed in INS-1E cells at ˜70% confluence in 6-well plates.
(§4) Tpl2 expression was specifically silenced in INS-1E cells using a validated set of 4 different 19-nucleotides siRNA duplexes (“ON-TARGETplus SMARTpool”, L-091828-01-0005) purchased from Dharmacon (ABgene Ltd, part of Thermo Fisher Scientific, Waltham, Mass.). […] Briefly, groups of 500,000 INS-1E cells were maintained in culture in the absence of penicillin and streptomycin for 24 h before being transfected with 40 nM siRNA-Lipofectamine™ 2000 complexes prepared in Opti-MEM medium at a 2:1 ratio. Medium was replaced 6 h after transfection with fresh antibiotic-free RPMI medium supplemented with 7.5% heat-inactivated FCS. […] The transfection efficiency was assessed using the “siGLO Green Transfection Indicator”. […]

[3] = tested on: isolated mouse islets; details: Tpl2 inhibitor 3 μM, cytokine mix 24 h
Procedure: D: Isolated mouse islets were stimulated or not with a cytokine mix (IL-1β (1000 U/ml), TNF-α (1000 U/ml) and IFN-γ (1000 U/ml)) in RPMI medium for 24 h. The caspase-3/7 activity was measured using the “Caspase-Glo® 3/7 Assay”.
Pancreatic islets were isolated from male 10- to 12-weeks-old C57BL/6 mice following the injection of approximately 2 ml of 1 mg/ml collagenase XI through the bile duct. The pancreases were then removed, incubated under agitation at 37° C. for 9 minutes to complete the digestion and the islets were separated from the exocrine pancreatic tissue using a Histopaque-1077 gradient. The islets were then washed in cold PBS supplemented with 1.2 mM CaCl2, 1 mM MgCl2, and 5.6 mM glucose, handpicked under microscope, separated in groups composed of 200-300 islets and maintained in culture at 37° C. (95% air and 5% CO2) in RPMI 1640 containing 11.1 mM glucose and supplemented with 10% FCS, 2 mM glutamine, 100 units/ml penicillin and 100 μg/ml streptomycin for at least 24 h before being used.

[4] = tested on: ERK1/2; details: islets from C57BL/6 mice; Tpl2 inhibitor 3 μM; cytokine mix 20 min
Procedure: (§5) 2D and 3B: 72 h after the first 40 nM siRNA transfection, INS-1E cells were treated or not, as described above. Phosphorylation and total protein amount were analyzed by Western blotting as described above. […] Data are expressed as ratio of phosphorylated on total protein amount and as fold of phosphorylation over basal in cells without treatment.

[5] = tested on: p46/p54 c-Jun N-terminal kinases (JNK); details: INS-1E cells
Procedure: as §5

[6] = tested on: p90RSK; details: islets from C57BL/6 mice; Tpl2 inhibitor 3 μM; cytokine mix 20 min
Procedure: as §5

[7] = tested on: ERK1/2; assay: ERK1/2 phosphorylation in INS-1E β-cells (Western blotting); type: cell-based, rat; details: INS-1E cells, Tpl2 inhibitor 3 μM
Procedure: as §2, §3, §4

[8] = tested on: INS-1E cells; assay: Apoptosis of INS-1E cells (cleaved caspase-3 and cleaved PARP, Western blotting)
Procedure: FIG. 5: Apoptotic effects of inflammatory cytokines in INS-1E cells and in mouse pancreatic islets under Tpl2 inhibition. A and C: INS-1E β-cells were treated in RPMI medium containing BSA 0.5% (A) or 7.5% SVF (C) with or without Tpl2 inhibitor (3 μM) during 2 h and then stimulated or not with Tpl2 inhibitor (3 μM) and IL-1β alone (20 ng/ml) for 48 h (A) or the cytokine mixture (IL-1β (0.2 μg/ml), TNFα (50 ng/ml), and IFNγ (30 ng/ml) for 24 h (C). Lysates were subjected to Western blotting with antibodies against cleaved caspase-3 (1:1000), total and cleaved PARP (1:1000) or β-actin (1:5000). Quantification of four to ten independent experiments is shown. Data are expressed as ratio of cleaved caspase-3 or cleaved PARP on β-actin protein amounts, and as fold of these proteins over basal in cells without treatment. Data are presented as the means±SEM. *P<0.05, **P<0.01, and ***P<0.001 vs stimulus effect in control cells. B: INS-1E β-cells were stimulated or not in RPMI medium containing SVF 7.5% with each cytokine alone or a mixture of the three (IL-1β (0.2 ng/ml), TNFα (50 ng/ml), or IFNγ(30 ng/ml) for 24 h. Lysates were subjected to Western blotting with antibodies against cleaved caspase-3 (1:1000) or β-actin (1:5000). Dotted line represents 100% of caspase-3 amount from untreated control cells. Quantification of four independent experiments is shown. Data are expressed as a percentage of cleaved caspase-3 protein amount in untreated cells (caspase-3/β-actin protein amount ratio). Data are presented as the means±SEM. *P<0.05, **P<0.01, and ***P<0.001 vs untreated control cells.

[9] = tested on: ERK1/2; details: human islets; Tpl2 inhibitor 3 μM 2 h; cytokine mix 20 min
Procedure: Human islets were isolated, cultured 24-72 h for recovery in CMRL medium containing 10% SVF, treated with KRBH buffer with or without Tpl2 inhibitor (3 μM) during 2 h and then stimulated or not with a cytokine mix (IL-1β (100 U/ml), TNF-α (500 U/ml), and IFNγ(100 U/ml)) for 20 min. Lysates were subjected to western blot analysis with antibodies against phosphorylated ERK1/2 (1:1000) or β-actin (1:2000). […] Data are expressed as ratio of phosphorylated ERK2 on β-actin amount and as a fold increase over basal in islets without treatment. Data are expressed as the means±SEM. *P<0.05, vs stimulus effect in control cells.
Human pancreases were harvested from five brain-dead non-obese non-diabetic donors in agreement with the French Agence de la Biomedecine and the local Institutional Ethical Committee. […]
Human islets were isolated, cultured 24-72 h for recovery in CMRL medium containing 10% SVF, treated with KRBH buffer with or without Tpl2 inhibitor (3 μM) during 2 h and then stimulated or not with a cytokine mix (IL-1β (100 U/ml), TNF-α (500 U/ml), and IFNγ (100 U/ml)) for 20 min. […] Data are expressed as ratio of phosphorylated ERK2 on b-actin amount and as a fold increase over basal in islets without treatment. Data are expressed as the means±SEM. *P<0.05, vs stimulus effect in control cells.

[10] = tested on: p38; assay: p38 phosphorylation in INS-1E β-cells (Western blotting); type: cell-based, rat; details: INS-1E cells
Procedure: as §2
Tpl2 expression was specifically silenced in INS-1E cells using a validated set of 4 different 19-nucleotides siRNA duplexes (“ON-TARGETplus SMARTpool”, L-091828-01-0005) purchased from Dharmacon (ABgene Ltd, part of Thermo Fisher Scientific, Waltham, Mass.). […] Briefly, groups of 500,000 INS-1E cells were maintained in culture in the absence of penicillin and streptomycin for 24 h before being transfected with 40 nM siRNA-Lipofectamine™ 2000 complexes prepared in Opti-MEM medium at a 2:1 ratio. Medium was replaced 6 h after transfection with fresh antibiotic-free RPMI medium supplemented with 7.5% heat-inactivated FCS. A second transfection was performed 24 h after the first one to improve the transfection efficiency. The transfection efficiency was assessed using the “siGLO Green Transfection Indicator”. All assays were performed at least 50 h after the first transfection.
Proteins were visualized by enhanced chemiluminescence detection.

[11] = tested on: INS-1E cells; details: Tpl2 inhibitor 5 μM, 24 h in conditioned medium of LPS-activated RAW264.7
Procedure: RAW264.7 macrophages were maintained in DMEM containing 5% (vol/vol) heat-inactivated fetal bovine serum and antibiotics at 37° C. and 5% CO2/95% air atmosphere. RAW264.7 macrophages were incubated for 24 h with LPS (Lipopolysaccharide) (0.5 ng/ml), and the resulting conditioned medium was transferred onto INS-1E cells treated with or without Tpl2 inhibitor (5 μM). Lysates were subjected to Western blotting with antibodies against cleaved caspase-3 (1:1000), or HSP90 (1:1000). […] Data are expressed as ratio of cleaved caspase-3 on HSP90 protein amount, and as fold of cleaved caspase-3 over basal in cells in control culture medium without Tpl2 inhibitor treatment.

[12] = tested on: human pancreatic islets; assay: Glucose-stimulated insulin secretion (stimulation index) of human islets exposed to cytokines; type: cell-based; details: Tpl2 inhibitor 3 μM, cytokine mix 72 h, stimulation index 20 mM/2.8 mM glucose
Procedure: Human islets were treated in RPMI medium containing 0.2% human albumin with or without Tpl2 inhibitor (3 μM) and/or Exendin-4 (20 nM) during 2 h and then stimulated or not with Tpl2 inhibitor (3 μM), Exendin-4 (20 nM) and/or a cytokine mixture (IL-1β (1000 U/ml), TNF-α (1000 U/ml) and IFN-γ (1000 U/ml) for 72 h, and then submitted to a glucose-response test in KRB buffer. The stimulation index is defined as the ratio of stimulated (20 mM glucose) to basal (2.8 mM glucose) insulin secretion. Each column represents the mean±SEM of 5 replicates (each replicate corresponds to islets from one human donor). *P<0.05, **P<0.01, and ***P<0.001 vs cytokine effect in control cells.
INS-1E cells, mouse (5-10 islets per condition) or human islets (500-2000 IEQ per condition) were preincubated at 37° C. during 2 h with or without Tpl2 inhibitor (3 μM) and Exendin-4 (20 nM), and then incubated for different times (0, 8, 16, 24, 36, 48 or 72 h) with or without Tpl2-inhibitor (3 μM), IL-1β alone (10000 U/ml, 20 μg/ml), a cytokine mix (IL-1β (100 U/ml, 0.2 ng/ml), TNF-α (500 U/ml, 50 ng/ml), and IFN-γ (100 U/ml, 30 ng/ml) for INS-1E cells and mouse islets; and IL-1β (1000 U/ml, 2 ng/ml), TNF-α (1000 U/ml, 28 ng/ml) and IFN-γ (1000 U/ml, 833 ng/ml) for human islets), and/or Exendin-4 (20 nM). […]

[13] = tested on: MEK, MK2, Src, protein kinase C, and EGF receptor; details: cited from earlier work
[14] = INS-1E cells, Tpl2 inhibitor 3 μM, IL-1β 20 ng/ml 48 h
[15] = INS-1E cells, Tpl2 inhibitor 3 μM, cytokine mix 24 h

N#Cc1cnc2cnc(NCc3cccnc3)cc2c1Nc1ccc(F)c(Cl)c1 [Tpl2 inhibitor, 4-(3-Chloro-4-fluorophenylamino)-6-(pyridine-3-yl-methylamino)-3-cyano-[1,7]napthyridine]
body weights vs vehicle-treated db/db mice ([1]; 2.5 mg/kg daily ip, 2 weeks): not different | tolerance to glucose challenges ([1]; 2.5 mg/kg daily ip, after 7 days): significantly improved | insulin sensitivity (insulin tolerance test) ([1]; 2.5 mg/kg daily ip, after 14 days): significant improvement | serum insulin level at fast ([1]; 2.5 mg/kg daily ip, day 14, vehicle 11.3±1.2): 4.3 ± 0.4 ng/mL | blood glucose concentration at fast ([1]; 2.5 mg/kg daily ip, day 14, vehicle 258.6±40.7): 144.0 ± 15.5 mg/dL | toxicity ([1]; daily ip 2.5 mg/kg, 2 weeks): not toxic | inhibition of IL-1β-induced p90RSK phosphorylation ([2]; IL-1β 20 ng/ml 20 min, same extent as ERK1/2 (60%)): inhibited to the same extent | inhibition of cytokine-induced p90RSK phosphorylation ([2]; cytokine mix 20 min, same extent as ERK1/2 (50-60%)): inhibited to the same extent | decrease of caspase-3/7 activity induced by the mixture of cytokines [3]: ~50% | inhibition of cytokine-stimulated ERK1/2 phosphorylation [4]: efficient at inhibiting | effect on IL-1β-induced p46/p54 JNK phosphorylation ([5]; 3 μM): no effect | effect on IL-1β-induced p46/p54 JNK phosphorylation ([5]; 10 μM (data not shown)): no effect | inhibition of cytokine-stimulated p90RSK phosphorylation [6]: efficient at inhibiting | suppression of IL-1β-induced ERK1/2 phosphorylation ([7]; 2 h, IL-1β 20 ng/ml 20 min): 60% | suppression of cytokine-induced ERK1/2 phosphorylation ([7]; cytokine mix IL-1β+TNF-α+IFN-γ 20 min): 50-60% | decrease in cleaved PARP level induced by IL-1β [8, 14]: ~30% | decrease in cleaved caspase-3 level induced by IL-1β [8, 14]: ~45% | decrease in cleaved PARP level induced by the mixture of cytokines [8, 15]: ~25% | decrease in cleaved caspase-3 level induced by the mixture of cytokines [8, 15]: ~30% | INS-1E cell apoptosis with Tpl2 inhibitor alone ([8]; long term treatment, 3 μM, no cytokine): did not increase | inhibition of phosphorylation/activation of ERK1/2 induced by the cytokine mixture [9]: significantly efficient at inhibiting | effect on IL-1β-induced p38 phosphorylation ([10]; 3 μM): no effect | effect on IL-1β-induced p38 phosphorylation ([10]; 10 μM (data not shown)): no effect | decrease of cleaved caspase-3 induced by macrophage conditioned medium [11]: around 55% | prevention of cytokine-induced insulin secretion failure [12]: ~50% | inhibition or activation of other protein kinases ([13]; concentration <5 μM that prevents activation of the ERK1/2 cascade): No other protein kinase has been found to be inhibited or activated | selectivity over other related kinases (MEK, MK2, Src, protein kinase C, EGF receptor) ([13]; concentrations below 5 μM): significant selectivity
